Measurements published in ChEMBL document CHEMBL5154747, “Discovery of new carbonic anhydrase IX inhibitors as anticancer agents by toning the hydrophobic and hydrophilic rims of the active site to encounter the dual-tail approach” (Eur J Med Chem, 2022).

Assays:
SN12C = test: Anticancer activity against human SN12C cells assessed as cell growth inhibition at 10 uM incubated for 48 hrs by SRB assay relative to control; assay type: functional; conditions: read-out: GI
TK-10 = test: Anticancer activity against human TK-10 cells assessed as cell growth inhibition at 10 uM incubated for 48 hrs by SRB assay relative to control; assay type: functional; conditions: read-out: GI
HOP-92 = test: Anticancer activity against human HOP-92 cells assessed as cell growth inhibition at 10 uM incubated for 48 hrs by SRB assay relative to control; assay type: functional; conditions: read-out: GI
OVCAR-4 = test: Anticancer activity against human OVCAR-4 cells assessed as cell growth inhibition at 10 uM incubated for 48 hrs by SRB assay relative to control; assay type: functional; conditions: read-out: GI
UO-31 = test: Anticancer activity against human UO-31 cells assessed as cell growth inhibition at 10 uM incubated for 48 hrs by SRB assay relative to control; assay type: functional; conditions: read-out: GI
786-0 = test: Anticancer activity against human 786-0 cells assessed as cell growth inhibition at 10 uM incubated for 48 hrs by SRB assay relative to control; assay type: functional; conditions: read-out: GI
SK-MEL-5 = test: Anticancer activity against human SK-MEL-5 cells assessed as cell growth inhibition at 10 uM incubated for 48 hrs by SRB assay relative to control; assay type: functional; conditions: read-out: GI
Hs-578T = test: Anticancer activity against human Hs-578T cells assessed as cell growth inhibition at 10 uM incubated for 48 hrs by SRB assay relative to control; assay type: functional; conditions: read-out: GI
Carbonic anhydrase 9 = Carbonic anhydrase 9 (Homo sapiens, UniProt Q16790); test: Inhibition of recombinant human CA 9 preincubated for 15 mins by phenol red dye based stopped flow CO2 hydration assay
HL-60(TB) = test: Anticancer activity against human HL-60(TB) cells assessed as cell growth inhibition at 10 uM incubated for 48 hrs by SRB assay relative to control; assay type: functional; conditions: read-out: GI
CAKI-1 = test: Anticancer activity against human CAKI-1 cells assessed as cell growth inhibition at 10 uM incubated for 48 hrs by SRB assay relative to control; assay type: functional; conditions: read-out: GI
UACC-257 = test: Anticancer activity against human UACC-257 cells assessed as cell growth inhibition at 10 uM incubated for 48 hrs by SRB assay relative to control; assay type: functional; conditions: read-out: GI
MDA-MB-231 = test: Anticancer activity against human MDA-MB-231 cells assessed as cell growth inhibition at 10 uM incubated for 48 hrs by SRB assay relative to control; assay type: functional; conditions: read-out: GI
Malme-3M = test: Anticancer activity against human Malme-3M cells assessed as cell growth inhibition at 10 uM incubated for 48 hrs by SRB assay relative to control; assay type: functional; conditions: read-out: GI
SNB-19 = test: Anticancer activity against human SNB-19 cells assessed as cell growth inhibition at 10 uM incubated for 48 hrs by SRB assay relative to control; assay type: functional; conditions: read-out: GI
IGROV-1 = test: Anticancer activity against human IGROV-1 cells assessed as cell growth inhibition at 10 uM incubated for 48 hrs by SRB assay relative to control; assay type: functional; conditions: read-out: GI
A549 = test: Anticancer activity against human A549 cells assessed as cell growth inhibition at 10 uM incubated for 48 hrs by SRB assay relative to control; assay type: functional; conditions: read-out: GI
SF-295 = test: Anticancer activity against human SF-295 cells assessed as cell growth inhibition at 10 uM incubated for 48 hrs by SRB assay relative to control; assay type: functional; conditions: read-out: GI
MCF7 = test: Anticancer activity against human MCF7 cells assessed as cell growth inhibition at 10 uM incubated for 48 hrs by SRB assay relative to control; assay type: functional; conditions: read-out: GI
HCT-116 = test: Anticancer activity against human HCT-116 cells assessed as cell growth inhibition at 10 uM incubated for 48 hrs by SRB assay relative to control; assay type: functional; conditions: read-out: GI

Compound | inhibition of growth at 10 µM (SN12C) [%] | inhibition of growth at 10 µM (TK-10) [%] | inhibition of growth at 10 µM (HOP-92) [%] | inhibition of growth at 10 µM (OVCAR-4) [%] | inhibition of growth at 10 µM (UO-31) [%] | inhibition of growth at 10 µM (786-0) [%] | inhibition of growth at 10 µM (SK-MEL-5) [%] | inhibition of growth at 10 µM (Hs-578T) [%] | Ki (Carbonic anhydrase 9) [µM] | inhibition of growth at 10 µM (HL-60(TB)) [%] | inhibition of growth at 10 µM (CAKI-1) [%] | inhibition of growth at 10 µM (UACC-257) [%] | inhibition of growth at 10 µM (MDA-MB-231) [%] | inhibition of growth at 10 µM (Malme-3M) [%] | inhibition of growth at 10 µM (SNB-19) [%] | inhibition of growth at 10 µM (IGROV-1) [%] | inhibition of growth at 10 µM (A549) [%] | inhibition of growth at 10 µM (SF-295) [%] | inhibition of growth at 10 µM (MCF7) [%] | inhibition of growth at 10 µM (HCT-116) [%]
NS(=O)(=O)c1ccc(Nc2nc(N/N=C/c3ccc(Cl)cc3)nc(Nc3ccccc3)n2)cc1 | 18 | < 10 | < 10 | 16 | 17 | 59 | 30 | 35 | 0.0226 | 27 | 37 | 10 | 13 | 11 | 18 | 33 | 37 | 41 | 61 | 55
NS(=O)(=O)c1ccc(Nc2nc(N/N=C/c3ccc(F)cc3)nc(Nc3ccccc3)n2)cc1 | 49 | 98 | 36 | 44 | 33 | 41 | 61 | 59 | 0.0613 | 39 | 43 | 52 | 38 | 42 | 30 | 56 | 92 | 29 | 71 | 55
NS(=O)(=O)c1ccc(Nc2nc(N/N=C/c3ccc4c(c3)OCO4)nc(Nc3ccccc3)n2)cc1 | 45 | < 10 | 33 | 44 | 23 | 38 | 45 | 47 | 0.0293 | 68 | 54 | 15 | 40 | 41 | 44 | 63 | 25 | 35 | 81 | 63
CN(C)c1ccc(/C=N/Nc2nc(Nc3ccccc3)nc(Nc3ccc(S(N)(=O)=O)cc3)n2)cc1 | 22 | < 10 | < 10 | < 10 | 15 | 31 | 14 | 37 | 0.0133 | 29 | < 10 | < 10 | 13 | 25 | 16 | 28 | 26 | 53 | 40 | 45
NS(=O)(=O)c1ccc(Nc2nc(N/N=C/c3ccc([N+](=O)[O-])cc3)nc(Nc3ccccc3)n2)cc1 | 72 | < 10 | 50 | 44 | 18 | 91 | 67 | 46 | 0.0317 | 64 | 49 | 17 | 54 | 63 | 79 | 47 | < 10 | 42 | 90 | 83
NS(=O)(=O)c1ccc(Nc2nc(N/N=C/CCc3ccccc3)nc(Nc3ccccc3)n2)cc1 | < 10 | < 10 | < 10 | < 10 | < 10 | < 10 | < 10 | < 10 | 0.0288 | < 10 | < 10 | < 10 | < 10 | < 10 | < 10 | < 10 | < 10 | < 10 | < 10 | < 10
Cc1ccc(/C=N/Nc2nc(Nc3ccccc3)nc(Nc3ccc(S(N)(=O)=O)cc3)n2)cc1 | 17 | < 10 | > 10 | 30 | 31 | 53 | 23 | 37 | 0.0269 | 24 | 39 | < 10 | 26 | < 10 | 22 | 46 | 16 | 42 | 73 | 48
NS(=O)(=O)c1ccc(Nc2nc(N/N=C/c3cccc4ccccc34)nc(Nc3ccccc3)n2)cc1 | 12 | < 10 | < 10 | 16 | 18 | 56 | 29 | 11 | 0.0281 | 28 | 23 | < 10 | < 10 | 19 | < 10 | 26 | 26 | 29 | 46 | 45
NNc1nc(Nc2ccccc2)nc(Nc2ccc(S(N)(=O)=O)cc2)n1 | < 10 | < 10 | < 10 | < 10 | 13 | < 10 | < 10 | < 10 | – | < 10 | < 10 | < 10 | < 10 | < 10 | < 10 | < 10 | < 10 | < 10 | < 10 | < 10
